Experimental findings from US20080207760A1, “Pharmaceutical Compositions For and Methods of Inhibiting Hcv” (priority 2005, published 2008) are described below.

The structures appear in SMILES notation. “Also recorded” adds a separate entry of the source.

The target in test [1] is T1, synthetic NS4A (Hepatitis C virus genotype 1b, UniProt Q9WMX2).
T1 construct: The full length of NS4A (54 amino acids) is synthesized; made in house
Put plainly: Competition assay with [3H] labeled azidoacylthiourea for NS4A binding. Also on record: species or system HCV. The procedure:
(§1) To determine whether acylthiourea compounds bind to NS4A, a photo-affinity labeling is carried out, in which an [^3H] labeled photo-reactive azidoacylthiourea, 1-(5-Azido-benzofuran-2-carbonyl)-3-(4-pentyloxy-3-trifluoromethyl-phenyl)-thiourea, is mixed with synthetic NS4A at various molar ratios. The mixture is incubated at 31° C. for one hour. Samples are then illuminated by a UV lamp (254 nm wavelength) at room temperature for 7 minutes. After denaturing with equal volume of Laemmli buffer containing 5% mercaptoethanol at 99° C. for 5 minutes, samples are separated on a 10-20% SDS-PAGE. After electrophoresis, the gel is fixed with 30% methanol—10% acetic acid overnight. Then the gel is treated with 3H enhancer solution (PerkinElmer) at room temperature for one hour, and subsequently with water for 30 minutes, and dried under vacuum.
To study the binding specificity of [^3H] labeled 1-(5-Azido-benzofuran-2-carbonyl)-3-(4-pentyloxy-3-trifluoromethyl-phenyl)-thiourea to synthetic NS4A, several structurally related compounds are used in the following competition assays. Non-labeled 1-(5-Azido-benzofuran-2-carbonyl)-3-(4-pentyloxy-3-trifluoromethyl-phenyl)-thiourea shares the same structure with [^3H] labeled 1-(5-Azido-benzofuran-2-carbonyl)-3-(4-pentyloxy-3-trifluoromethyl-phenyl)-thiourea. 1-(5-Azido-benzofuran-2-carbonyl)-3-(4-pentyloxy-3-trifluoromethyl-phenyl)-urea differs in structure from 1-(5-Azido-benzofuran-2-carbonyl)-3-(4-pentyloxy-3-trifluoromethyl-phenyl)-thiourea in that 1-(5-Azido-benzofuran-2-carbonyl)-3-(4-pentyloxy-3-trifluoromethyl-phenyl)-urea has a carbonyl group where 1-(5-Azido-benzofuran-2-carbonyl)-3-(4-pentyloxy-3-trifluoromethyl-phenyl)-thiourea has a thiocarbonyl group. […]

For the next test, the system named is HCV replicon cells. The test can be described thus: HCV replicon assay (RNA dot blot or NPTII ELISA). The class given is cell-based. As to the method:
Cells expressing the HCV replicon are seeded onto the internal wells of 96-well plates at a density of 7,000 cells per well. One day later, different dilutions of the test compounds are added to corresponding wells and the plates are incubated in a CO2 incubator for 72 hours. After treatment, the cells are lysed with 70 μl RLN buffer per well (50 mM Tris-HCl [pH8.0], 140 mM NaCl, 1.5 mM MgCl2, 0.5% Nonidet P-40, 1,000 units/mL RNAsin and 1 mM […]). The total lysate is transferred to a new U bottom 96-well plate and nuclei and cell debris are pelleted with a brief spin (300×g for 3 minutes). 50 μl of supernatant is removed from the well and loaded directly onto manifold wells equipped with Nylon membranes. HCV RNA is hybridized at 58° C. overnight using a labeled HCV RNA probe containing a negative strand sequence complement to the NS5B region. Hybridization buffer is composed of 50% formamide, 5×SSPE, 1% SDS, 5× Denhart's solution, and sheared denatured salmon sperm DNA. Following hybridization, the membrane is washed with washing buffer (0.1×SSC, 0.1% SDS) at room temperature for two hours, then at 65° C. for 30 minutes. The radioactivity in each well is counted on a Microbeta counter and EC50 is calculated based on cpm. Alternatively, HCV replicon cells are trypsinized for 5-10 minutes in a CO2 incubator. Then, cells are placed in a 15 mL tube, and are spun at 1000 rpm for 4 minutes and trypsin solution is removed. Cell pellets are washed once with PBS and spun 4 minutes at 1000 rpm.
Trypsinization and wash steps, supra, are conducted efficiently to minimize cell death. PBS is removed and cells are resuspended in 4 mL fresh PBS and cells are seeded at a dilution of 5000 cells per well to 96 well plates. Test compounds are diluted in 96 well U bottom plates with DMEM (high glucose) (BRL, Catalog #21063) supplemented with 10% FBS, L-glutamine, and non-essential amino acid. 100 uL of test compound is loaded into each well. […]
100 uL of development solution (TMB one-step substrate system) is added and plates are developed in the dark for 10 to 30 minutes. […] OD450 is measured. […]
On the technique in general: Replicon systems follow genome replication, usually without infectious particles.

The target of test [2] is T1, synthetic NS4A. The test can be described thus: Photo-affinity labeling. The format is binding, HCV. As to conditions: [3H] labeled compound, UV 254 nm, SDS-PAGE. The procedure: Experiments are undertaken to investigate the affinity and binding specificity of acylthiourea compounds to NS4A. The full length of NS4A (54 amino acids) is synthesized, and characterized with mass spectral analysis and HPLC profiling. An NS4A sample is then dissolved in 100% dimethylsulphoxide (DMSO) at a concentration of 2 μg/μl and subjected to a 10-20% SDS-PAGE with a reducing reagent. A 6 kDa protein band, consistent with the size of NS4A, is detected in the gel following a Coomassie blue staining. The NS4A identity of this band is further confirmed by a Western blot with monoclonal anti-NS4A antibody.
as §1, with “Then the gel is treated with 3H enhancer solution (PerkinElmer) at room temperature for one hour, and subsequently with water for 30 minutes, and dried under vacuum.” left out

The target in a further test is NS3 protease domain (Hepatitis C virus genotype 1b, UniProt Q9WMX2). The test can be described thus: Photo-affinity labeling. The format is binding, HCV. Particulars: [3H] labeled compound; same molar ratio as NS4A (3.3 μM). As to the method:
as §1
(§2) One band corresponds to NS4A monomer, which is also detectable with Coomassie blue staining (FIG. 3). […] Without being bound by any particular theory, it is believed that this band may be composed largely of polymer form or aggregates of NS4A. At the same time, full-length NS3 and NS3 protease domain is included in this binding assay.

A further test has as its target full-length NS3 (Hepatitis C virus genotype 1b, UniProt Q9WMX2). The test can be described thus: Photo-affinity labeling. The format is binding, HCV. Particulars: [3H] labeled compound; same molar ratio as NS4A (3.3 μM). As to the method:
as §1, §2

T1 sequence (Q9WMX2 1658-1711): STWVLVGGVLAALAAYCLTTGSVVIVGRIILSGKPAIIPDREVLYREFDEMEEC
Chain of full-length NS3 (Q9WMX2 1027-1657): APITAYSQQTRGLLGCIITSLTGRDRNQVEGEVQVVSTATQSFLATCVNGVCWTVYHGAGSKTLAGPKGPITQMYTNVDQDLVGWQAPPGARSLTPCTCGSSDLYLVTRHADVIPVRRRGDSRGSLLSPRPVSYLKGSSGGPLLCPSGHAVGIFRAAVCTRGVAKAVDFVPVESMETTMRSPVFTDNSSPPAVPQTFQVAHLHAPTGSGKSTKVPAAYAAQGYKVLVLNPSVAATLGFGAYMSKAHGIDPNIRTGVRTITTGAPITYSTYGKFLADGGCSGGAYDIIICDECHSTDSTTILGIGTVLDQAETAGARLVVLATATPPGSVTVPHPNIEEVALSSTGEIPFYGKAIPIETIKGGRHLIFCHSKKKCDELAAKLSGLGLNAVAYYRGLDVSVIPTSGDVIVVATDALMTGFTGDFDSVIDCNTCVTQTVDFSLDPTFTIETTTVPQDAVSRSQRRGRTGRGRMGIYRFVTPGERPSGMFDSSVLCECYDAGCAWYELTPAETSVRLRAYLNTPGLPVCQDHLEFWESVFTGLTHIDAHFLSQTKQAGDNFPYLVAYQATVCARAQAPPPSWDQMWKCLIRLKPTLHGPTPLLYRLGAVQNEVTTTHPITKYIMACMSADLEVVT
Chain of NS3 protease domain (Q9WMX2 1027-1208): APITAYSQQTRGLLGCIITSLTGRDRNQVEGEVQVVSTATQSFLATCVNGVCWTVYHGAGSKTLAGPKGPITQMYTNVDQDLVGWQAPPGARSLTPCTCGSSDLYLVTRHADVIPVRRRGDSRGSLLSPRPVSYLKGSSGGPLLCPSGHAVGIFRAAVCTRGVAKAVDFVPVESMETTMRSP

Take `CCCCCOc1ccc(NC(=S)NC(=O)c2cccnc2)cc1C(F)(F)F` [1-(4-Pentyloxy-3-trifluoromethyl-phenyl)-3-(pyridine-3-carbonyl)-thiourea]: the “competition with [3H] labeled 1-(5-Azido-benzofuran-2-carbonyl)-3-(4-pentyloxy-3-trifluoromethyl-phenyl)-thiourea for NS4A binding” value (“competition” below) at synthetic NS4A [1] is “effectively compete”. Besides, in the test on HCV replicon cells, the “anti-HCV activity in replicon cells” value was “exhibit anti-HCV activities in replicon cells”.

For the molecule `CCCCCOc1ccc(NC(=S)NC(=O)c2cc3cc(N=[N+]=[N-])ccc3o2)cc1C(F)(F)F` [1-(5-Azido-benzofuran-2-carbonyl)-3-(4-pentyloxy-3-trifluoromethyl-phenyl)-thiourea], at synthetic NS4A [2], the “binding to synthetic NS4A” value is “binds to synthetic NS4A; also recorded: two radioactive bands are shown in the gel”. Also, the “binding to NS3 protease domain” value on NS3 protease domain is given as “only weak binding signals”. Moreover, at full-length NS3, the “binding to full-length NS3” value was “only weak binding signals”.

As for `CCCCCOc1ccc(NC(=O)NC(=O)c2cc3cc(N=[N+]=[N-])ccc3o2)cc1C(F)(F)F` [1-(5-Azido-benzofuran-2-carbonyl)-3-(4-pentyloxy-3-trifluoromethyl-phenyl)-urea], at synthetic NS4A [1], the “competition” value is listed as “does not compete; also recorded: appears to abolish this competition capacity”. Moreover, the “anti-HCV activity in replicon cells” value with HCV replicon cells was “does not exhibit any anti-HCV activity in replicon cells”.

Regarding `CCCCCOc1ccc(NC(=S)NC(=O)c2cc3ccccc3o2)cc1C(F)(F)F` [1-(Benzofuran-2-carbonyl)-3-(4-pentyloxy-3-trifluoromethyl-phenyl)-thiourea], the “competition” value at synthetic NS4A [1] is “effectively compete”. In addition, the “anti-HCV activity in replicon cells” value in the test on HCV replicon cells is given as “exhibit anti-HCV activities in replicon cells”.
